Data published in patent publication US7342100B2, “Hpr6 mutants and uses thereof” (University of Kentucky Research Foundation, priority 2004, dated 2008).

Columns and labels:
Hpr6 = experiment: Induction of Hpr6 expression by drugs, western blot; type: cell-based, human
Excerpt: 1A: western blot analysis showing expression of Hpr6 (top panel) and tubulin (bottom panel) in the cell lines BT549 (lane 1), MCF-7 (lane 2), HCT-100 (lane 3), MDA-MB-231 (lane 4), MDA-MB-435 (lane 5), and HeLa (lane 6). […] The position of molecular weight markers is indicated to the left. […] MDA-MB-231 cells were untreated (upper panel, lane 1), treated with 0.5 or μM doxorubicin (upper panel, lanes 2 and 3), or 0.25 1 μm camptothecin (upper panel, lane 4) for 3 days, and the expression of Hpr6 was analyzed by western blot.
Drug treatment, viability assays, and immunological analyses. Doxorubicin (Sigma, St. Louis, Mo.) was added to culture media and incubated for five days. Cells were incubated with hydrogen peroxide (Fisher), mechlorethamine (kindly provided by Dr. Robert Orlowski, University of North Carolina at Chapel Hill) or camptothecin (Sigma) for 72 hours. Trypan blue and MTT assays were performed using standard techniques as previously described (Hand et al. Journal of Cellular Biochemistry 2003; 90: 534-47). Western blots of cultured cells and tumors were performed as described previously (Hand et al. Journal of Cellular Biochemistry 2003; 90: 534-47; Yang et al. Tumor Biology 2003; 24: 61-9). The antibodies used were as follows: anti-HA (HAll, BAbCo, Berkeley, Calif.), tubulin (Fisher), and Hpr6 (Meyer et al. Steroids 1998; 63: 111-6). Cells were visualized using a VistaVision inverted microscope attached to a Sony DCS F717 digital camera (VWR, Batavia, Ill.). For immunofluorescence, MCF-7/vector and MCF-7/Hpr6 cells (Hand et al. Journal of Cellular Biochemistry 2003; 90: 534-47) were fixed with 3.7% formaldehyde, permeabilized with 0.1% Triton X-100, blocked with 10% normal goat serum, and incubated with the HAll monoclonal antibody. Cells were then washed, incubated with a FITC-Iabeled anti-mouse secondary antibody (Santa Cruz Biotechnology, Santa Cruz, Calif.), washed, mounted, and visualized using a Zeiss fluorescent microscope.
The effect of the Ad-Hpr6-mut adenovirus in response to chemotherapy was analyzed for two reasons. First, the budding yeast homologue of Hpr6 controls resistance to damaging agents.

[1] = Heme binding of purified Hpr6 proteins by absorbance at 400 nm; conditions: purified protein liberated from GST fusion, triplicate
Description: FIG. 2. […] 2A: Purification of GST-Hpr6 (lane 1) and GST-Hpr6-mut (lane 2) fusion proteins. Proteins were purified using glutathione-agarose and analyzed by SDS-PAGE electrophoresis. 2B: Heme binding by Hpr6 (left column) but not Hpr6-mut (right column). Solubilized proteins were analyzed for absorbance at 400 nm, and measurements were performed in triplicate. 2C: western blot analysis of MDA-MB-231 cells infected with 500, 1000, or 2000 pfu/cell of Ad-Hpr6-mut (lanes 1-3) or 2000 pfu/cell of Ad-LacZ (lane 4). Hpr6 expression was visualized with an antibody to the HA epitope tag. D. The Hpr6-mut protein is overexpressed compared to endogenous Hpr6 following Ad-Hpr6-mut infection. MDA-MB 231 cells were infected with Ad-LacZ (lane 1) or Ad-Hpr6-mut (lane 2) and analyzed by western blots probed for HA (top panel), Hpr6 (middle panel), or tubulin (bottom panel). The positions of the exogenous Hpr6-mut and endogenous Hpr6 protein are indicated in the center panel (top and bottom, respectively).
Fusion protein plasmids, preparation, and analysis. Hpr6-GST fusion proteins contained amino acids 43-195 of the Hpr6 open reading frame. […]
Hpr6 binds to heme, and the D120G mutation in the heme-1 domain blocks heme-binding activity. […] The measurement was performed in triplicate, and the difference between Hpr6 and Hpr6-D120G absorbance was statistically significant (P=0.03). […]

Row | Compound | induction of Hpr6 expression (Hpr6; MCF-7 cells, data not shown) | induction of Hpr6 expression (Hpr6; MDA-MB-231 cells, western blot) | heme binding (absorbance at 400 nm) [1]
1 | COc1cccc2c1C(=O)c1c(O)c3c(c(O)c1C2=O)C[C@@](O)(C(=O)CO)C[C@@H]3O[C@H]1C[C@H](N)[C@H](O)[C@H](C)O1 [doxorubicin] | induced | induced | 
2 | N.N.[Cl][Pt][Cl] [cisplatinum] |  | not induced | 
3 | Hpr6-D120G: mutant Hpr6 polypeptide, SEQ ID NO:1, aspartic acid 120 in heme binding region mutated to glycine; inactive form |  |  | absent
4 | Hpr6: wild-type human heme-1 domain protein Hpr6 |  |  | bound efficiently to heme
5 | OO [hydrogen peroxide] |  | not induced | 
6 | CC[C@@]1(O)C(=O)OCc2c1cc1n(c2=O)Cc2cc3ccccc3nc2-1 [camptothecin] | induced | induced | 
